# Experimental data published in US5057414A, “Method for the determination of the activity of serine proteases or serine protease inhibitors” (Behringwerke Aktiengesellschaft, priority 1987, dated 1991).
# Legend:
# [1] = tested on: plasminogen activator inhibitors; conditions: Lawrence and Loskutoff, Biochemistry 25, 6351-6355, 1986; cited from earlier work
# [2] = tested on: human alpha-thrombin; assay: Comparison Experiment 13: oxidation resistance of thrombin; type: biochemical; conditions: 500 nmol of chloramine T or 500 times the dose of H202
# [3] = tested on: u-PA/PAI complexes; assay: Comparison Experiments 5 and 7: stability of u-PA/PAI complexes in the functional PAI determination; type: biochemical; conditions: in the reaction mixture; Comparison Experiment 5
# Description: (§1) Preincubation of 50 μl of sample with 200 μl of a variant of solution C (plasminogen activator dissolved in basic buffer U) at 37° C. for five minutes was followed by addition of 200 μl of a variant of plasminogen reagent (F), composed of 100 mM Tris-HCl pH 8.4, crosslinked polypeptides 1%, ^R Triton×100 0.1%, 100 mM NaCl without tran-examic acid, NaN3 0.01 % (basic buffer U) with 10 CTA-U/ml plasminogen and 200 μl of distilled water with 10 mM chloramine T, 3 mM tranexamic acid to the reaction mixture. The mixture was incubated at 37° C. for 5 min, and 500 μl of 0.6 mM chromogenic plasmin substrate HD-Nva-CHA-Lys-pNA in 480 mM NaCl (or, as a substitute, 200 mM CsCl) were added. The resultant linear change in extinction, delta A/min, at 405 nm was followed. The values found for normal plasma were about 0.2/min.
# The chloramine T concentrations added in the determination method specified in Example 3 were varied from 0 to 9 mmol/1 of reaction mixture. The assayed samples were either a) deficient in functional PAI (=PAI-deficientplasma) or b) rich in functional PAI. An optimum of generated plasmin activity is found on addition of between 1 and 4 mmol/1 chloramine T. The two plasma plots are parallel throughout the range, i.e. u-PA/PAI complexes are stable up to at least 9 mM chloramine T in the reaction mixture (=650 1). […]
# [4] = tested on: antithrombin III (AT III); assay: Comparison Experiment 13: oxidative inactivation of antithrombin III; type: biochemical; conditions: 37° C., 15 min preincubation, pH 8.8
# Description: 50 pmol of AT III in 50 μl of 50 mM Tris, 100 mM NaCl, 0.1% (w/v) Triton×100, pH 8.8 buffer, are preincubated with increasing quantities of chloramine T or hydrogen peroxide in 50 μl of distilled water at 37° C. for 15 min. Then 3 pmol of human alpha-thrombin, 2.5 IU of heparin and 2 KIU of aprotinin in 500 μl of 100 mM Tris, 150 mM NaCl, pH 8.2, are added, and the mixture is incubated at 37° C. for 5 min. Addition of 500 μl of 0.4 mM H-D-CHA-But-ArgpNA was followed by further incubation for 3 min (37° C.). The reaction was stopped by 100 μl of 8.5 M acetic acid, and the change in extinction at 405 nm was determined.
# [5] = tested on: Plasmin/antiplasmin complexes; assay: Comparison Experiment 14b: stability of plasmin/antiplasmin complexes to chloramine T; type: biochemical; conditions: in the reaction mixture, 37° C., 30 min
# Description: 30 pmol of alpha2 -antiplasmin and basic buffer A (control mixture) are incubated with 50 pmol of plasmin in 175 μl of basic buffer A for 5 min (37° C.). Addition of 500 μl of chloramine T of various concentrations in basic buffer A is followed by incubation for 30 min (37° C.), and the detection reaction is started by addition of 200 μl of 2.5 mM chromogenic plasmin substrate H-D-Phe-Tyr-Arg-ANBA in basic buffer A. After 3 min (37° C.), the reaction is stopped by addition of 100 μl of 8.5 M acetic acid, and the change in extinction at 405 nm is determined. No additional plasmin activity is generated even by chloramine T concentrations above 5 mM in the reaction mixture, that is to say plasmin/antiplasmin complexes are oxidation-resistant.
# [6] = tested on: urokinase; assay: Comparison Experiment 3: stability of urokinase against chloramine T in the pure buffer system; type: biochemical
# Description: (§2) 50 μl of various samples, namely either basic buffer A (1) or PAI-deficient plasma (2) and PAI-rich plasma (3) 20 were incubated with 200 μl of solution C (plasminogen activator reagent) at 23° C. for 10 min. After addition of 500 μl of solution A (basic buffer), 50 μl of chloramine T of various concentrations, 300 μl of solution E (plasmin substrate reagent) and 100 μl of solution F (plasminogen reagent), the mixtures were incubated at 37° C. for 15 min. Substrate conversion was stopped by addition of 100 μl of 8.5 M acetic acid, and the extinction at 405 nm was determined. The oxidizing agent chloramine T used in this experiment was employed in solutions of the following concentrations.
# [7] = tested on: PAI/u-PA complex; assay: Comparison Experiment 3: stability of the PAI/u-PA complex against chloramine T; type: biochemical
# Description: as §2
# [8] = tested on: plasmin; assay: Comparison Experiment 11: effect of chloramine T and/or tranexamic acid on plasmin activity in the functional PAI assay; type: biochemical; conditions: for delta A/4 min: 405 nm
# Description: as §1, with “followed.” for “followed. The values found for normal plasma were about 0.2/min.”
smiles,measurement,setting,value
"Cc1ccc(S(=O)(=O)NCl)cc1 [chloramine T, Chloramine T]",concentration inactivating plasminogen activator inhibitors,[1],about 10 μM
same,activity of thrombin at the dose inactivating AT III,[2],without the activity of thrombin being impaired
same,chloramine T concentration up to which u-PA/PAI complexes are stable,[3],at least 9 mM
same,quantity of chloramine T inactivating 50 pmol of AT III,[4],500 nmol
same,chloramine T concentration generating no additional plasmin activity,[5],above 5 mM
same,chloramine T concentration attacking urokinase,[6],1 mM
same,chloramine T concentration at which the PAI/u-PA complex is stable (FIG. 3),[7],above 2 mmol/1
same,chloramine T concentration not resulting in cleavage of the PAI/u-PA complexes,"[7]; PAI-deficient vs PAI-rich plasma, in reaction mixture",above 2 mM
same,increase in plasmin activity with alpha2-antiplasmin-deficient plasma compared with normal plasma,[8],20%
same,delta A/4 min,[8]; Normal plasma without alpha2-antiplasmin,271 mA
same,delta A/4 min,[8]; Normal plasma,225 mA
